Test results reported in patent publication US4591586A, “6-fluoro-3-[3-(1-heterocyclo)propyl]-1,2-benzisoxazoles for treatment of pain, hypertension and psychoses” (Hoechst-Roussel Pharmaceuticals, priority 1984, dated 1986).
Structures can show the parent of a compound that is named as a salt. Where two headings read alike, the source gives them in different places.

How the values were obtained:
[1] = tested on: phenyl-para-quinone induced writhing; experiment: phenyl-para-quinone writhing assay in mice (analgesia); assay type: in vivo; settings: for ED50: Mus musculus, read-out: Analgesic Activity ED50 (dose at which 50% of the phenyl-para-quinone induced writhing is inhibited)
[2] = tested on: apomorphine-induced climbing; experiment: climbing mice assay (block of apomorphine-induced climbing), antipsychotic activity; assay type: in vivo, mice (CK-1 male); settings: Mus musculus, ip; for ED50: read-out: Antipsychotic Activity ED50 value (estimated dose for 50% decrease in climbing scores)
[3] = tested on: spontaneous hypertensive rat; experiment: antihypertensive activity in the spontaneous hypertensive rat, indirect tail cuff method; assay type: in vivo; settings: 50 mg/kg of body wt, oral, 3 days, measured on third day
Description: According to this procedure, the test compound is administered orally to a group of 5 rats for 3 days in relation to a control group of the same number. The decrease in blood pressure is measured on the third day of administration.

[4] = mice, 10 mg/kg of body wt, intraperitoneal, 30 minutes prior to apomorphine 1.5 mg/kg s.c., read-out: Antipsychotic Activity (% decrease in climbing score)
[5] = mice, at 20 mg/kg, subcutaneous
[6] = mice, intraperitoneal, 30 minutes prior to apomorphine 1.5 mg/kg s.c., linear regression

Fc1ccc2c(CCCN3CCCCCC3)noc2c1.O=C(O)C(=O)O [1-[3-(6-Fluoro-1,2-benzisoxazol-3-yl)propyl]-2,3,4,5,6,7-hexahydroazepine oxalate]
ED50 ([1]; sc, mice, subcutaneous): 1.3 mg/kg
inhibition in vivo at 10 mg/kg [2, 4]: 27%

CC(O)C1(c2ccccc2)CCN(CCCc2noc3cc(F)ccc23)CC1 (centres unmarked) [1-[3-(6-Fluoro-1,2-benzisoxazol-3-yl)propyl]-4-(1-hydroxyethyl)-4-phenylpiperidine hydrochloride]
inhibition in vivo at 10 mg/kg ([2]; read-out: Antipsychotic Activity (% decrease in climbing score)): 41%

Cl.Fc1ccc2c(CCCN3CCC(Oc4ccc(Cl)c(Cl)c4)CC3)noc2c1 [1-[3-(6-Fluoro-1,2-benzisoxazol-3-yl)propyl]-4-(3,4-dichlorophenoxy)piperidine hydrochloride]
percent decrease in writhing at a given dose [1, 5]: 49%

Cl.Fc1ccc2c(CCCN3CCC(CCCc4ccccc4)CC3)noc2c1 [1-[3-(6-Fluoro-1,2-benzisoxazol-3-yl)propyl]-4-(3-phenylpropyl)piperidine hydrochloride]
inhibition in vivo at 10 mg/kg [2, 4]: 25%
Blood Pressure Decrease (decrease in mean arterial blood pressure) [3]: 40 mm/mercury

Cl.O=C(c1ccc(F)cc1)C1CCN(CCCc2noc3cc(F)ccc23)CC1 [1-[3-(6-Fluoro-1,2-benzisoxazol-3-yl)propyl]-4-(4-fluorobenzoyl)piperidine hydrochloride]
ED50 ([1]; sc, mice, subcutaneous): 0.8 mg/kg
inhibition in vivo at 3 mg/kg ([2]; mice, 3 mg/kg of body wt, intraperitoneal, 30 minutes prior to apomorphine 1.5 mg/kg s.c., read-out: Antipsychotic Activity (% decrease in climbing score)): 91%

Cl.Fc1ccc2c(CCCN3CCC(Oc4ccc(C(F)(F)F)cc4)CC3)noc2c1 [1-[3-(6-Fluoro-1,2-benzisoxazol-3-yl)propyl]-4-(4-trifluoromethylphenoxy)piperidine hydrochloride]
Blood Pressure Decrease (decrease in mean arterial blood pressure) [3]: 35 mm/mercury

OC1CCN(CCCc2noc3cc(F)ccc23)CC1 [1-[3-(6-Fluoro-1,2-benzisoxazol-3-yl)propyl]-4-hydroxypiperidine]
percent decrease in writhing at a given dose [1, 5]: 43%
ED50 [2, 6]: 10.4 mg/kg

Cl.Fc1ccc2c(CCCN3CCC(c4ccccc4)CC3)noc2c1 [1-[3-(6-Fluoro-1,2-benzisoxazol-3-yl)propyl]-4-phenylpiperidine hydrochloride]
ED50 ([1]; sc, mice, subcutaneous): 1 mg/kg
inhibition in vivo at 10 mg/kg [2, 4]: 35%

Cl.Fc1ccc2c(CCCN3CCC(Sc4ccccc4)CC3)noc2c1 [1-[3-(6-Fluoro-1,2-benzisoxazol-3-yl)propyl]-4-phenylthiopiperidine hydrochloride]
ED50 ([1]; sc, mice, subcutaneous): 4.4 mg/kg
inhibition in vivo at 10 mg/kg [2, 4]: 27%

Fc1ccc2c(CCCN3CCOCC3)noc2c1 [1-[3-(6-Fluoro-1,2-benzisoxazol-3-yl)propyl]morpholine oxalate]
ED50 ([1]; sc, mice, subcutaneous): 2.2 mg/kg

Cl.Fc1ccc2c(CCCN3CCCCC3)noc2c1 [1-[3-(6-Fluoro-1,2-benzisoxazol-3-yl)propyl]piperidine hydrochloride]
ED50 ([1]; sc, mice, subcutaneous): 0.6 mg/kg
Blood Pressure Decrease (decrease in mean arterial blood pressure) [3]: 30 mm/mercury

Fc1ccc2c(CCCN3CCCC3)noc2c1.O=C(O)C(=O)O [1-[3-(6-Fluoro-1,2-benzisoxazol-3-yl)propyl]pyrrolidine oxalate]
ED50 ([1]; sc, mice, subcutaneous): 1.2 mg/kg

Fc1ccc2c(CCCN3CCc4ccccc4C3)noc2c1 [2-[3-(6-Fluoro-1,2-benzisoxazol-3-yl)propyl]-1,2,3,4-tetrahydroisoquinolinehydrochloride]
percent decrease in writhing at a given dose [1, 5]: 69%

Fc1ccc2c(CCCN3CCC(Oc4ccc(Cl)cc4)CC3)noc2c1 [4-(4-Chlorophenoxy)-1-[3-(6-fluoro-1,2-benzisoxazol-3-yl)propyl]-piperidinehydrochloride]
Blood Pressure Decrease (decrease in mean arterial blood pressure) [3]: 39 mm/mercury

CC(=O)C1(c2ccccc2)CCN(CCCc2noc3cc(F)ccc23)CC1.Cl [4-Acetyl-1-[3-(6-fluoro-1,2-benzisoxazol-3-yl)propyl]-4-phenylpiperidine hydrochloride]
percent decrease in writhing at a given dose ([1]; mouse, in vivo, sc, 20 mg/kg): 46%

O=C(NC1CCN(CCCc2noc3cc(F)ccc23)CC1)c1ccccc1 [4-Benzamido-1-[3-(6-fluoro-1,2-benzisoxazol-3-yl)propyl]-piperidine]
ED50 ([1]; sc, mice, subcutaneous): 0.6 mg/kg
inhibition in vivo at 10 mg/kg [2, 4]: 49%
Blood Pressure Decrease (decrease in mean arterial blood pressure) [3]: 44 mm/mercury

Cl.Fc1ccc2c(CCCN3CCC(Cc4ccccc4)CC3)noc2c1 [4-Benzyl-1-[3-(6-fluoro-1,2-benzisoxazol-3-yl)propyl]piperidine hydrochloride]
inhibition in vivo at 10 mg/kg [2, 4]: 29%
Blood Pressure Decrease (decrease in mean arterial blood pressure) [3]: 71 mm/mercury

CC1CCN(CCCc2noc3cc(F)ccc23)CC1.Cl [4-Methyl-1-[3-(6-fluoro-1,2-benzisoxazol-3-yl)propyl]piperidine hydrochloride]
ED50 [2, 6]: 7.6 mg/kg
Blood Pressure Decrease (decrease in mean arterial blood pressure) [3]: 59 mm/mercury

Fc1ccc2c(CCCNN3CCCCC3)noc2c1 [6-Fluoro-3-{3-[N-(1-piperidino)aminopropyl}-1,2-benzisoxazole oxalate]
ED50 ([1]; sc, mice, subcutaneous): 5 mg/kg
inhibition in vivo at 10 mg/kg [2, 4]: 36%

Cl.Fc1ccc2c(CCCN3CCC4(CC3)OCCO4)noc2c1 [8-[3-(6-Fluoro-1,2-benzisoxazol-3-yl)propyl]-1,4-dioxa-8-azaspiro[4,5]decane hydrochloride]
ED50 ([1]; sc, mice, subcutaneous): 1.4 mg/kg
ED50 [2, 6]: 6.4 mg/kg

N=C(N)NCCN1CCCCCCC1 [guanethidine, reference compound]
Blood Pressure Decrease (decrease in mean arterial blood pressure) [3]: 20 mm/mercury

O=C(CCCN1CCC(O)(c2ccc(Cl)cc2)CC1)c1ccc(F)cc1 [haloperidol, reference compound]
ED50 [2]: 0.11 mg/kg

CC(C)=CCN1CCC2(C)c3cc(O)ccc3CC1C2C (centres unmarked) [pentazocine, reference compound]
ED50 ([1]; sc): 1.3 mg/kg

CCC(=O)O[C@](Cc1ccccc1)(c1ccccc1)[C@H](C)CN(C)C [propoxyphene, reference compound]
ED50 ([1]; sc): 3.9 mg/kg

CSc1ccc2c(c1)N(CCC1CCCCN1C)c1ccccc1S2 (centres unmarked) [thioridazine, reference compound]
ED50 [2, 6]: 3.5 mg/kg
